What was measured:
Assay type in all cases: in vivo
Echinochloa crus-galli [1] = assay: Test Example 11: herbicidal effect test by soil treatment in paddy field; settings: 120 g/10a active ingredient, 14 days after treatment
Procedure, shortened: (§1)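 Puddled paddy soil with N:P:K 17:17:17 fertilizer in Wagner pots; 30 seeds per species sown at 0–1 cm, flooded to about 3 cm, kept in a glass greenhouse. Water-diluted emulsifiable concentrate dripped in immediately after sowing at 120 g a.i. per 10 are. Suppression from dry weight versus untreated at 14 days.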

Lindernia pyxidaria [2] = assay: as above; settings: 120 g/10a active ingredient, 14 days after treatment
Procedure, shortened: as §1

Monochoria vaginalis [3] = assay: as above; settings: 120 g/10a active ingredient, 14 days after treatment
Procedure, shortened: as §1

Scirpus juncoides [4] = assay: as above; settings: 120 g/10a active ingredient, 14 days after treatment
Procedure, shortened: as §1

Echinochloa crus-galli [5] = assay: Test Example 12: herbicidal effect test by treatment during growing period in paddy field; settings: 120 g/10a; treatment seven days after sowing in flooded paddy pot; assessed 14 days after treatment
Procedure, shortened: (§2)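 Growing-period treatment in flooded paddy pots: the diluted emulsifiable concentrate was dripped in at 120 g a.i. per 10 are seven days after seeding. Inhibition is expressed as percent reduction in dry weight versus untreated pots, measured 14 days later in duplicate.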

Lindernia pyxidaria [6] = assay: as above; settings: 120 g/10a; treatment seven days after sowing in flooded paddy pot; assessed 14 days after treatment
Procedure, shortened: as §2

Monochoria vaginalis [7] = assay: as above; settings: 120 g/10a; treatment seven days after sowing in flooded paddy pot; assessed 14 days after treatment
Procedure, shortened: as §2

Scirpus juncoides [8] = assay: as above; settings: 120 g/10a; treatment seven days after sowing in flooded paddy pot; assessed 14 days after treatment
Procedure, shortened: as §2

Chenopodium album = assay: Test Example 14: herbicidal effect test by foliage treatment in upland field; settings: 7 days after sowing, 120 g/10a, 14 days after treatment
Description: (§3) A pot having a size of 36 cm^2 was filled with field soil (alluvial soil) and after uniformly mixing the soil of the surface layer of 1 cm with 20 grains of each weed seed of crabgrass, Echinochloa crus-galli, Chenopodium album and Amaranthus viridis, the surface layer was pressed lightly. Seven Days after the sowing, an emulsifiable concentrate prepared according to Formulation Example 15 by using the compound shown in Table 12 below was diluted with water, and the water-diluted formulation was sprayed on the soil surface at a ratio of 100 liter per 10 are. The application rate of the active ingredient, by conversion, corresponded to 120 g per 10 are. Fourteen Days after the formulation treatment, the herbicidal effect was evaluated by the same criteria as in Test Example 11.

crabgrass = assay: as above; settings: 7 days after sowing, 120 g/10a, 14 days after treatment
Description: as §3

Amaranthus viridis = assay: as above; settings: 7 days after sowing, 120 g/10a, 14 days after treatment
Description: (§4) This test was performed with two replications per one formulation concentration plot, and 14 days after the formulation treatments, the weed suppression rate (%) was determined according to the following equation (Math. 2). Weed suppression rate (%)=(1−average dry weight (g) of plants in treated plots/average dry weight (g) of plants in untreated plots)×100 [Math. 2]
as §3

Echinochloa crus-galli [9] = assay: as above; settings: 7 days after sowing, 120 g/10a, 14 days after treatment
Description: as §4, §3

SMILES	Weed suppression rate (%) Echinochloa crus-galli (Echinochloa crus-galli [1]) [%]	Weed suppression rate (%) Lindemia pyxidaria (Lindernia pyxidaria [2]) [%]	Weed suppression rate (%) Monochoria vaginalis (Monochoria vaginalis [3]) [%]	Weed suppression rate (%) Scirpus juncoides (Scirpus juncoides [4]) [%]	Weed suppression rate (%) Echinochloa crus-galli (Echinochloa crus-galli [5]) [%]	Weed suppression rate (%) Lindemia pyxidaria (Lindernia pyxidaria [6]) [%]	Weed suppression rate (%) Monochoria vaginalis (Monochoria vaginalis [7]) [%]	Weed suppression rate (%) Scirpus juncoides (Scirpus juncoides [8]) [%]	herbicidal effect, Chenopodium album (Chenopodium album) [%]	herbicidal effect, Crabgrass (crabgrass) [%]	herbicidal effect, Amaranthus viridis (Amaranthus viridis) [%]	herbicidal effect, Echinochloa crus-galli (Echinochloa crus-galli [9]) [%]
CC(C)N(C(=O)n1cnn(S(=O)(=O)C2CCCCC2)c1=O)c1cccc(F)c1 [Compound 11-285]	90	80	80	90	90	80	80	90	80	90	90	80
CC(C)N(C(=O)n1cnn(S(=O)(=O)C2CCCCC2)c1=O)c1cccc(F)c1F [Compound 11-293]	100	100	100	100	100	100	100	100	70	100	60	90
CC(C)N(C(=O)n1cnn(S(=O)(=O)C2CCCCC2)c1=O)c1c(F)c(F)cc(F)c1F [Compound 11-299]	100	100	70	100	100	80	100	100	60	100	60	100
CC(C)N(C(=O)n1cnn(S(=O)(=O)C2CCCCC2)c1=O)c1ccc(Cl)cc1Br [Compound 11-306]	100	80	60	100	90	70	70	100	70	100	70	60
CC(C)N(C(=O)n1cnn(S(=O)(=O)c2ccccc2F)c1=O)c1ccccc1 [Compound 11-391]	90	80	60	80	90	80	80	80	40	90	40	60
CC(C)N(C(=O)n1cnn(S(=O)(=O)c2ccccc2F)c1=O)c1ccc(F)c(F)c1F [Compound 11-405]	100	100	100	100	100	100	100	100	60	90	70	90
CC(C)N(C(=O)n1cnn(S(=O)(=O)c2ccc(F)cc2)c1=O)c1ccccc1 [Compound 11-464]	100	80	60	80	90	60	80	90	50	90	50	60
Cc1ccc(S(=O)(=O)n2ncn(C(=O)N(c3c(F)cc(F)cc3F)C(C)C)c2=O)cc1 [Compound 11-641]	100	100	80	100	100	80	90	100	70	90	60	100
Cc1ccc(S(=O)(=O)n2ncn(C(=O)N(c3ccc(Cl)cn3)C(C)C)c2=O)cc1 [Compound 11-661]	100	100	80	90	100	100	100	90	0	70	0	90
CC(C)N(C(=O)n1cnn(S(=O)(=O)c2ccc(C(C)(C)C)cc2)c1=O)c1c(F)cc(F)cc1F [Compound 11-686]	90	100	80	100	90	60	70	100	60	90	30	90
CC(C)N(C(=O)n1cnn(S(=O)(=O)c2cccc(C(F)(F)F)c2)c1=O)c1ccc(Cl)cc1Br [Compound 11-735]	100	90	90	100	100	90	90	100	70	100	70	60
CC(C)N(C(=O)n1cnn(S(=O)(=O)c2c(F)c(F)c(F)c(F)c2F)c1=O)c1c(F)cc(F)cc1F [Compound 11-815]	100	100	80	100	100	80	70	70	80	100	70	70
CC(C)N(C(=O)n1cnn(S(=O)(=O)c2cccs2)c1=O)c1ccccc1 [Compound 11-1011]	90	80	80	90	90	80	80	90	80	90	90	80

Reference: US11076595B2, “1-(n,n-disubstituted carbamoyl) 4-(substituted sulfonyl)triazolin-5-one derivative, 4-(n,n-disubstituted carbamoyl) 1-(substituted sulfonyl)triazolin-5-one derivative, and herbicide containing said derivative as active ingredient” (HOKKO CHEMICAL INDUSTRY CO., LTD., priority 2017, dated 2021)
